Strand notation (5' to 3'): a small letter for the sugar, then the base; units joined by * are phosphorothioate-linked, units joined directly phosphodiester-linked; [ ] holds rarer units or linkages, { } end groups; capitals alone tell only the bases. k = constrained ethyl (cEt); [5mC] = 5-methylcytosine; d = 2'-deoxy (DNA)
Tested on: Yap1 mRNA
Test: Dose-dependent inhibition of human Yap1 in A-431 cells (Example 8, 10,000 cells per well, RTS4814)
Format: cell-based
Conditions: free uptake, approximately 48 hours, RTS4814; for Yap1 mRNA, % UTC: A-431 cells, 10,000 cells per well; for IC50: A-431 cells, linear regression on log/linear plot
Description: Modified oligonucleotides described in the studies above were tested at various doses in A-431 cells. Cultured A-431 cells at a density of 10,000 cells per well were treated using free uptake with modified oligonucleotides diluted to concentrations described in the tables below. After approximately 48 hours, Yap1 mRNA levels were measured as previously described using the Human Yap1 primer-probe set RTS4814. Yap1 mRNA levels were normalized to total RNA content, as measured by RIBOGREEN®. Results are presented in the tables below as percent control of the amount of Yap1 mRNA relative to untreated control cells (% UTC). IC50s were calculated using a linear regression on a log/linear plot of the data in excel.

Row | Substance | Yap1 mRNA, % UTC (31.3 nM) [% UTC] | Yap1 mRNA, % UTC (125.0 nM) [% UTC] | Yap1 mRNA, % UTC (500.0 nM) [% UTC] | Yap1 mRNA, % UTC (2000.00 nM) [% UTC] | IC50 [nM]
1 | 1075686 (kG*kT*kA*dA*dT*dT*dA*d[5mC]*dA*dG*dT*dG*dT*k[5mC]*kT*k[5mC]; antisense) [compound 1075686] | 72 | 44 | 18 | 14 | 100
2 | 1074792 (kA*kT*k[5mC]*dA*dA*dT*dG*dT*dG*d[5mC]*dT*d[5mC]*d[5mC]*kA*kT*k[5mC]; antisense) [compound 1074792] | 48 | 17 | 7 | 5 | < 20
3 | 1075748 (kG*kT*kA*dA*dA*dT*d[5mC]*dA*dA*dG*dT*dT*dG*k[5mC]*kA*kT; antisense) [compound 1075748] | 81 | 36 | 12 | 7 | 100
4 | 1076386 (antisense kA*kG*kT*dT*dA*dT*dA*dA*d[5mC]*dA*dG*dT*dG*kT*kA*kA) [compound 1076386] | 61 | 30 | 11 | 5 | 40
5 | 1074753 (kT*kA*k[5mC]*dA*dT*dT*dA*dG*dG*dA*dA*d[5mC]*dA*kA*kG*kG; antisense) [compound 1074753] | 42 | 10 | 6 | 4 | < 20
6 | 1076459 (k[5mC]*kT*kT*d[5mC]*dA*dA*d[5mC]*dA*dA*dG*dA*d[5mC]*dA*kG*kG*kT; antisense) [compound 1076459] | 67 | 32 | 13 | 7 | 100
7 | 1075143 (k[5mC]*k[5mC]*kT*dT*dA*dT*dT*dA*dG*dT*d[5mC]*dA*dG*kT*kT*k[5mC]; antisense) [compound 1075143] | 59 | 21 | 5 | 3 | < 20
8 | 1076486 (kG*kA*kA*dA*d[5mC]*dG*dA*dA*dA*d[5mC]*dG*dG*dG*kA*kA*kA; antisense) [compound 1076486] | 84 | 45 | 16 | 6 | 100
9 | 1076070 (kA*kT*kT*dA*dG*dT*dA*dA*dT*dG*d[5mC]*dA*d[5mC]*kA*kG*kG; antisense) [compound 1076070] | 55 | 17 | 8 | 6 | < 20
10 | 1074850 (kT*kT*kG*dT*dT*dA*dT*dG*dA*dT*dA*dG*dG*k[5mC]*kA*k[5mC]; antisense) [compound 1074850] | 63 | 20 | 7 | 5 | 40
11 | 1075047 (antisense kT*kA*kA*dA*dA*dT*dT*dA*dG*dA*d[5mC]*dT*d[5mC]*k[5mC]*k[5mC]*k[5mC]) [compound 1075047] | 80 | 63 | 27 | 10 | 200
12 | 1074758 (k[5mC]*kA*kG*dT*dT*dA*dA*dG*d[5mC]*dA*d[5mC]*dT*dT*kT*kT*kA; antisense) [compound 1074758] | 74 | 23 | 8 | 5 | 100
13 | 1076294 (kT*kA*kT*dA*dT*dT*dA*dG*dT*dG*d[5mC]*d[5mC]*d[5mC]*k[5mC]*k[5mC]*kT; antisense) [compound 1076294] | 76 | 50 | 21 | 11 | 100
14 | 1076483 (kA*k[5mC]*kG*dG*dG*dA*dA*dA*dT*d[5mC]*dA*dT*dA*kT*kA*kG; antisense) [compound 1076483] | 63 | 27 | 11 | 6 | 40

— patent US11214803B2, “Modulators of YAP1 expression” (Ionis Pharmaceuticals, Inc., priority 2019, dated 2022)
